# Source: patent publication US20140294729A1, “METHODS FOR IDENTIFICATION AND USE OF AGENTS TARGETING CANCER STEM CELLS” (Whitehead Institute for Biomedical Research, priority 2008, published 2014)
# “Also recorded” adds a separate entry of the source.
# Tests used:
# Format in all cases: cell-based, human
# [1] = test system: HMLEshEcad cells; assay: High-throughput chemical screen for selective toxicity, HMLEshEcad vs HMLEshCntrl (ATP luminescence viability); conditions: for most compounds 10 uM, 3 days, duplicate
# Description: We screened compounds for cytotoxicity against both HMLEshEcad and control HMLEshCntrl cells. Cells were seeded in 384-well plates, allowed to grow for one day, treated with compound and assayed for cell viability after three days using a luminescence assay; compounds were screened in duplicate for each cell line (FIG. 3A; See Example 3). We screened a collection of ˜16,000 compounds, including many with known bioactivity, natural extracts, modulators of histone deacetylases, and several diverse commercial libraries.
# We developed conditions to use an ATP-based luminescence viability assay with 384-well plates in high throughput screening (see Example 3 for Methods). We screened a total of 16,000 compounds as part of our screen. […]
# Using the measurements from the plate-normalized DMSO control wells, we constructed the distribution of luminescence intensities for each cell line in the absence of compound (FIG. 3A). […]
# Information about the general automated HTS protocol is available online at broad.harvard.edu/chembio/index.html. […] For most compounds the final concentration in each well was calculated to be 10 uM.
# The screen was performed in duplicate. […] The luminescent signal from each plate was detected using an automated plate reader (Perkin-Elmer Envision 1; Wellesley, Mass.). […]
# [2] = test system: HMLE-Twist cells; assay: Dose-response viability of HMLEshCntrl vs HMLE-Twist cells; conditions: EMT induced by Twist, FIG. 4B
# Description: (§1) FIG. 4A depicts dose response curves of HMLEshCntrl (A, light gray curve) and HMLEshEcad (A, dark gray curve) cells treated with the 8 compounds identified during the initial screen. 1000 cells of each line were seeded onto 384 well plates and treated with 8 different concentrations of compounds within a 2.5 log range. The cell viability after 3 day treatment was measured by Cell-Titer-Glo. […] FIG. 4B depicts dose response curves of HMLEshCntrl (curve with square data points) and HMLE-Twist (curve with triangular data points) cells treated with the same compounds as in (A). Note that selectivity of Salinomycin, Abamectin, Etoposide and Nigericin (Top, Left-to-Right) is retained even though a different method of EMT induction is used. […] 1 Day after seeding DMSO, Salinomycin (1.25 or 5 μM) or Abamectin (0.25 or 1.25 μM) was added at the indicated concentration. As the GFP vector contains a Blasticidin resistance gene, we used Blasticidin treatment as a positive control for the expansion of GFP-expressing control HMLE cells. After 3 day incubation the mix population of cells were analyzed by flow cytometry and the percentage of GFP-positive cells were determined. […] FIG. 4D depicts dose response curves of transformed HMLERshCntrl (light gray line) and HMLERshEcad (dark gray lines) cells treated with Salinomycin and Abamectin. Dotted line denotes the 50% fraction surviving.
# (§2) Individual compounds were purchased from Sigma and dissolved in DMSO with the exception of nigericin which was dissolved in 100% ethanol. Activity of the compounds were quantified by generating dose-response curves for HMLE-shCntrl, HMLE-shEcad and HMLE-Twist under the same cell density and culture conditions described for the initial screen, using the 384-well plate based system.
# [3] = test system: HMLEshEcad cells; assay: Dose-response viability of HMLEshCntrl vs HMLEshEcad cells (validation of hits, 384-well, Cell-Titer-Glo); conditions: FIG. 4A; for selective toxicity towards HMLEshEcad cells relative to HMLEshCntrl cells: dose response on retesting
# Description: as §1
# We pursued 8 of the 32 compounds for further study and evaluated their effects across a range of doses.
# For each of these compounds, we evaluated the effect on cell viability across a series of doses for sibling cell lines either induced into or not induced into EMT.
# Information about the general automated HTS protocol is available online at broad.harvard.edu/chembio/index.html. The assay was initiated by plating 40 μL of medium containing 1000 cells/well into white 384-well opaque-bottom plates (Nunc, Rochester, N.Y.) using an automated plate filler (Bio-Tek μFiller; Winsooki, Vt.) and allowing the cells to adhere for 24 hours. 100 nL of compound stock solutions in dmso was transferred from stock plates into the 384-well assay plates using an automated pin-based compound transfer robot (CyBio CyBi-Well vario; Woburn, Mass.). For most compounds the final concentration in each well was calculated to be 10 uM.
# The screen was performed in duplicate. For negative controls, entire dmso-treated control plates were employed, in addition to dmso-only control wells that were incorporated into each compound assay plate. The cells were assayed for luciferase activity with the addition 20 ul of CellTiter-Glo Luminescent Cell Viability Assay solution (Promega). The luminescent signal from each plate was detected using an automated plate reader (Perkin-Elmer Envision 1; Wellesley, Mass.).
# as §2
smiles,measurement,setting,value
COc1cc([C@@H]2c3cc4c(cc3[C@@H](O[C@@H]3O[C@@H]5CO[C@@H](C)O[C@H]5[C@H](O)[C@H]3O)[C@H]3COC(=O)[C@H]23)OCO4)cc(OC)c1O [etoposide],specific toxicity towards HMLEshEcad (siEcad) line in the primary screen,[1],did score positively
same,selectivity for HMLE-Twist cells vs HMLEshCntrl; dose-response curves compared with HMLEshEcad,[2],is retained
same,IC50 fold lower for HMLEshEcad cells vs HMLEshCntrl cells,"[3]; 3 day treatment, 8 concentrations",~10 fold
same,selective toxicity towards HMLEshEcad cells relative to HMLEshCntrl cells,[3],moderate to strong selectivity; also recorded: strong specificity
same,selective toxicity towards HMLEshEcad cells relative to HMLEshCntrl cells,[3]; listed as Etoposide,selective toxicity
CN(Cc1cnc2nc(N)nc(N)c2n1)c1ccc(C(=O)N[C@@H](CCC(=O)O)C(=O)O)cc1 [methotrexate],specific toxicity towards HMLEshEcad (siEcad) line in the primary screen,[1],did score positively
